Values of other authors, collected in US11517536B2, “Pharmaceutical composition comprising pomalidomide” (SYNTHON B.V., priority 2016, dated 2022).

## Nc1cccc2c1C(=O)N(C1CCC(=O)NC1=O)C2=O (centres unmarked) [Pomalidomide, 4-amino-2-(2,6-dioxopiperidin-3-yl)isoindole-1,3-dione]
  solubility: low
Drug substance, in water
  solubility in water: practically insoluble
